pIC50: −log10 of the molar value.
What was measured:
[1] = In vitro anti-viral activity for HSV-1; format: cell-based; details: HSV-1 assay; toxic concentration that kills 50% of cells; read-out: Anti-HSV-1 Activity TC50
HSV-1 = assay: In vitro anti-viral activity for HSV-1; format: cell-based; details: Human alphaherpesvirus 1
[2] = In vitro anti-viral activity for HSV-2; format: cell-based; details: HSV-2 assay; toxic concentration that kills 50% of cells; read-out: Anti-HSV-2 Activity TC50
HSV-2 = assay: In vitro anti-viral activity for HSV-2; format: cell-based; details: Human alphaherpesvirus 2
[3] = In vitro anti-viral activity for HIV-1; format: cell-based; details: HIV-1 assay; toxic concentration that kills 50% of cells; read-out: Anti-HIV-1 Activity TC50
HIV-1 = assay: In vitro anti-viral activity for HIV-1; format: cell-based; details: Human immunodeficiency virus 1
[4] = In vitro anti-viral activity for HIV-2; format: cell-based; details: HIV-2 assay; toxic concentration that kills 50% of cells; read-out: Anti-HIV-2 Activity TC50
HIV-2 = assay: In vitro anti-viral activity for HIV-2; format: cell-based; details: Human immunodeficiency virus 2
[5] = HepG2 2.15 anti-viral evaluation assay (in vitro anti-HBV activity); format: cell-based, HBV aywl strain; details: human, HepG2 2.2.15 cells (produce HBV aywl strain); HepG2 2.2.15 cells; positive control; read-out: Anti-HBV TC50
Method: (§1) HepG2 2.2.15 cells, which produce HBV aywl strain, were plated in 96-well collagen coated microtiter plates at a density of 2.5×10^4/well with DMEM medium supplemented with 2% fetal bovine serum. One day following plating of cells, the wells were washed and the medium was replaced with complete medium containing the test compound diluted in the medium in a half-log series.
(§2) The medium was replaced once with the fresh medium containing the freshly diluted compound three days post the initial addition of the lamivudine, a positive control compound. Cell viability was determined using CellTiter 96® Reagent (Promega, Madison, Wis.) according to the manufacturer's protocol, using a Vmax plate reader (Molecular Devices, Sunnyvale, Calif.). The mixture is metabolized by the mitochondrial enzymes of metabolically active cells to a soluble formazan product, allowing the rapid quantitative analysis of cell numbers. The media was removed and replaced with 100 μL of fresh media and 10 μL of Cell Titer 96. […] Percent cell viability of compound treated wells compared to no compound controls was calculated using an in-house computer program which graphs the percent reduction in viral cytopathic effects and the cell numbers at each drug concentration relative to control values.

HBV = assay: as above; format: cell-based, HBV aywl strain
Method: as §1, §2

Row | Structure (SMILES) | CC50 [1] | pIC50 (HSV-1) | CC50 [2] | pIC50 (HSV-2) | CC50 [3] | pIC50 (HIV-1) | CC50 [4] | pIC50 (HIV-2) | CC50 [5] | Anti-viral Selectivity Index (HBV; HBV, TC50/IC50) | pIC50 (HBV; Hepatitis B virus, HepG2 2.2.15 cells, positive control)
1 | Nc1nc2c(ncn2COCCO)c(=O)[nH]1 [Acyclovir, reference compound] | > 100 µM | 4.75 | > 100 µM | 5.12 | – | – | – | – | – | – | –
2 | Fc1ccc(B(Oc2cccc3cccnc23)c2ccc(Cl)cc2)cc1 [Compound 15, (4-Fluorophenyl)(4-chlorophenyl)borinic acid quinolin-8-yl ester] | > 32 µM | 5.01 | 32.9 µM | < 4.30 | 2.5 µM | 6.77 | 0.53 µM | 7.40 | – | – | –
3 | Nc1ccn([C@@H]2CS[C@H](CO)O2)c(=O)n1 [Lamivudine] | – | – | – | – | – | – | – | – | > 1 µM | >1075 | 8.03

Source: patent US7393856B2, “Anti-viral uses of borinic acid complexes” (Anacor Pharmaceuticals, Inc., priority 2004, dated 2008)
